Measured values: patent publication US8043827B2, “Single molecule-format real-time bioluminescence imaging probe” (National Institute of Advanced Industrial Science and …, priority 2007, dated 2011)
Where two headings read alike, the source gives them in different places.

Assays:
Format in all cases: cell-based
[1] = test system: ATP receptor which is an endogenous membrane receptor of COS-7 cells; test: ATP concentration-dependent luminescence change in COS-7 cells carrying pSica-5
Experimental: For example, an ATP receptor which is an endogenous membrane receptor of COS-7 cells, is stimulated by 100 mM ATP, to thereby increase the concentration of Ca^2+. CaM in the probe responds to the elevated Ca^2+ Level, and as a result, the luminescence intensity is reduced. This phenomenon depends on the ATP concentration;
pSica-5 was transfected into COS-7 cells which have been cultured on a 24-well plate, using a transfection reagent (TransIT-LT1 (Mirus)). Then, the cells were cultured for 16 hours, and then the culture medium was exchanged with 200 μL of a mixed solution of a HBSS buffer (containing 1.3 mM Ca^2+) and the substrate. The values of luminescence change obtained thereafter were monitored by a luminescent plate reader (FIG. 5). After about 5 minutes, ATP was added at different concentrations, and changes in the luminescence values obtained thereafter were monitored. […] Meanwhile, no detectable change was recognized in the luminescence values for the buffer solution itself (phosphate buffer saline; PBS).

[2] = test system: ATP receptors present on the cell membrane of MCF-7 cells; test: Intracellular Ca^2+ level increased by ATP stimulation, MCF-7 cells transfected with pSica-5; conditions: 1 mM ATP; host cell MCF-7 transfected with pSica-5
Experimental: (§1) pSica-5 was transfected into COS-7 cells or HeLa cells which have been cultured on a 24-well plate, using a transfection reagent (TransIT-LT1 (Mirus)). Then, the cells were cultured for 16 hours, and then the cell culture medium was exchanged with 200 μL of a PBS buffer solution supplemented with coeleterazine, which is the specific substrate, and 2 μM ionomycin. The values of luminescence change obtained thereafter were monitored by a luminescent plate reader (Mithras LB940; Berthold) (FIG. 7(A)). Four minutes after stabilization of the background luminescence, Ca^2+ was added to the cells on the wells at concentrations ranging from 10^−3.5 M to 10^−5.5 M. Thereafter, the changes in the luminescence values were immediately monitored by the above-mentioned luminescence plate reader. Changes in the luminescence values, which were dependent on the concentration of added Ca^2+, were monitored. Based on the values of luminescence fluctuations in this Ca^2+ concentration range, three kinds of calibration curves were produced with respect to the Ca^2+ concentration in the cultured cells. Variances in the luminescence intensity induced by the ATP concentration in COS-7, MCF-7 and HeLa cells, which had been respectively transfected with pSica-5, were measured (FIG. 7(B)). […]

[3] = test system: ATP receptors present on the cell membrane of COS-7 cells; test: Intracellular Ca^2+ level increased by ATP stimulation, COS-7 cells transfected with pSica-5; conditions: 1 mM ATP; host cell COS-7 transfected with pSica-5
Experimental: as §1

calmodulin (CaM) = molecular target: T1, calmodulin (CaM) (Xenopus laevis, UniProt P0DP33); test: Ca^2+ concentration-dependent luminescence intensity in living cells transfected with pSica-5; conditions: for EC50: 2 μM ionomycin, PBS, read-out: 50% effective concentration (EC50) based on changes in luminescence intensities
T1 construct: (CaM; 1-150 AA; GenBank/NM001087395); expressed in transfected cells; host or cells: COS-7 or HeLa cells, pSica-5 in pcDNA3.1(+)
Experimental: PCR amplification was carried out to introduce KpnI and BamHI, which are restriction enzyme sites, into the two termini of a cDNA encoding calmodulin, which is a Xenopus laevis (African clawed frog)-derived Ca^2+ recognition protein (CaM; 1-150 AA; GenBank/NM001087395). On the other hand, as an optimal luminescent enzyme which can be linked to the CaM as a single-molecule-format probe, Gaussia princeps-derived luciferase (GLuc; 1-189 AA; GenBank/AY015993) was used. Five fragment pairs were generated by fragmentizing five sites of the cDNA of GLuc by PCR reaction, and were used in the examination of the optimal partition sites for GLuc (FIG. 3), which will be discussed in Example 2.
pSica-5 was transfected into COS-7 cells or HeLa cells which have been cultured on a 24-well plate, using a transfection reagent (TransIT-LT1 (Mirus)). Then, the cells were cultured for 16 hours, and then the cell culture medium was exchanged with 200 μL of a PBS buffer solution supplemented with coeleterazine, which is the specific substrate, and 2 μM ionomycin. The values of luminescence change obtained thereafter were monitored by a luminescent plate reader (Mithras LB940; Berthold) (FIG. 7(A)). Four minutes after stabilization of the background luminescence, Ca^2+ was added to the cells on the wells at concentrations ranging from 10^−3.5 M to 10^−5.5 M. Thereafter, the changes in the luminescence values were immediately monitored by the above-mentioned luminescence plate reader. Changes in the luminescence values, which were dependent on the concentration of added Ca^2+, were monitored. Based on the values of luminescence fluctuations in this Ca^2+ concentration range, three kinds of calibration curves were produced with respect to the Ca^2+ concentration in the cultured cells.

[4] = molecular target: T2, GR LBD (human glucocorticoid receptor) (Homo sapiens, UniProt P04150); test: Ligand sensitivity of living cells transfected with pSimgr; conditions: steroid hormone sensitivity (FIG. 9(C))
T2 construct: expressed in transfected cells
T2 sequence (P04150 524-758 limits assumed): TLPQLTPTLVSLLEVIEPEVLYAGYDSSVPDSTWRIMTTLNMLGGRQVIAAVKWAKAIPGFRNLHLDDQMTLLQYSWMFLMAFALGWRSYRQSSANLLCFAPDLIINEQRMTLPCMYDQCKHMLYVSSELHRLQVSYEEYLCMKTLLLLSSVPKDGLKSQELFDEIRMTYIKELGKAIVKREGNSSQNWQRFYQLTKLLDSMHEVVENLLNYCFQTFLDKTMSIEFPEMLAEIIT
Text: These plasmids were designated as pSimar and pSimgr, respectively.

Nc1ncnc2c1ncn2[C@@H]1O[C@H](COP(=O)(O)OP(=O)(O)OP(=O)(O)O)[C@@H](O)[C@H]1O [ATP]
changes in the luminescence values ([1]; COS-7 cells with pSica-5, 1 mM, 100 μM and 10 μM ATP, HBSS buffer containing 1.3 mM Ca^2+): stimulant dose-dependent changes
luminescence intensity ([1]; COS-7 cells, probe with GLuc dissected at site #5, 100 mM ATP (FIG. 5 legend)): reduced
Measured average of Ca^2+ concentrations (ave) [2]: 13 µM
Measured average of Ca^2+ concentrations (ave) [3]: 37.4 µM

[Ca+2] [Ca^2+]
EC50 (calmodulin (CaM); COS-7 cells transfected with pSica-5): 25 µM
EC50 (calmodulin (CaM); HeLa cells transfected with pSica-5): 50 µM
dissociation coefficient (Kd) between CaM and Ca^2+ (calmodulin (CaM); HeLa cells, from the luminescence values): 0.63×10^−17 M^4

C[C@]12CCC(=O)C=C1CC[C@@H]1[C@@H]2[C@@H](O)C[C@@]2(C)[C@H]1CC[C@]2(O)C(=O)CO [cortisol]
sensitivity of cells transfected with pSimgr [4]: strong sensitivity
